Test results published in patent publication US20220054644A1, “NOVEL DRUG DELIVERY CONJUGATED MOIETY FOR ORAL ADMINISTRATION OF DRUG UNSUITABLE FOR ORAL ADMINISTRATION AND PREPARATION METHOD THEREOF” (ST PHARM CO., LTD, priority 2015, published 2022).

Tests used:
FXa (Bovine Factor Xa) = assay: Measurement of FXa: heparin activity with COATEST HEPARIN FXa assay kit; type: biochemical; details: chromogenic substrate S-2222, absorbance at 405 nm
Method: The term “heparin activity” refers to the anticoagulant ability of heparin.
Stock solutions were prepared from 10 IU/ml of standard solution by accurately preparing test substances and then diluted to 0.1 IU/ml with buffer working solution (Tris 0.5 mol/L, pH=8.4, 10 ml, Chromogenix) to prepare standard solutions for each dose as shown in the following table 2 and used for the analysis.
Each 200 μL of pretreated samples was placed in a cuvette and preheated at 37° C. for 3 to 4 minutes. Each 100 μl of FXa (Bovine Factor Xa 71 nkat., Chromogenix) was added thereto and left at 37° C. for about 30 seconds. Then, each 200 μl of S-2222 (Chromogenic substrate (Bz-Ile-Glu-(g-OR)-Gly-Arg-pNA.HCl), Chromogenix) was added thereto and left at 37° C. for 3 minutes. Subsequently, each 300 μl of 20% acetic acid was added thereto, and then the absorbance was measured at 405 nm. At this time, the measurement should be performed within 4 hours.
A linear regression equation was obtained using calibration curve of the standard solutions and converted to obtain the titers of the samples.

[1] = system: deep vein thrombosis (DVT) disease models; assay: Measurement of DVT activities (rat deep vein thrombosis model); type: in vivo; details: rats, LMWH (enoxaparin) injected subcutaneously
Method: Low molecular weight heparin (enoxaparin) was administered to one group by subcutaneous injection, and the formulated complex of Example 2 was administered orally to other groups. […] The distal end of the vein along about 3 cm was weakly tied off, and the remaining veins were strongly tied off. 60 minutes after the drug treatment, 1 mL/kg of human pooled plasma was administered intravenously to the ends of the tails at 37° C., and the veins were tied off after 15 seconds to prevent blood flow. The veins were isolated 120 minutes after the drug treatment and stored in a Petri dish with 3.8% sodium citrate. Then, thrombus was isolated, and the amount of […] generated was measured.

[2] = rat, in vivo, iv, 2 mg/kg
Method: The following experiment was performed to determine the pharmacokinetic (PK) behavior of heparin administered orally using the drug delivery conjugated moiety of the present invention.
Prior to drug administration, experimental animals (rats) were fasted for more than 4 hours to empty the stomach. Then, after the dorsal skin was fixed, forced oral administration was performed using a sonde and a syringe for oral administration, and the animals were fed again about 4 hours after the administration. […] Blood samples (450 μL) were collected in a tube containing sodium citrate (50 μL) and centrifuged at 4500×g for 20 minutes to isolate plasma, which was then stored in a deep freezer at −70° C. The concentration of the drug delivery conjugated moiety-heparin complex in the plasma was analyzed using the COATEST HEPARIN FXa assay (Chromogenix).

enoxaparin [LMWH]
Anti-factor Xa activity (FXa (Bovine Factor Xa)): 101 IU/mg | thrombus generated, compared with complex of Example 2 [1]: almost the same results | AUC (Area under the concentration-time curve from 0 to 8 h) [2]: 1.8 ± 0.1 IU · h/ml | CL (Clearance) [2]: 17 ± 0 mL/day/kg | Emax (Maximum effective concentration) [2]: 1.61 ± 0.02 IU/ml | Tmax (Time to reach maximum effective concentration) [2]: 12 ± 0 min | t1/2 (Half-life of drug) [2]: 72 ± 6 min
